In US20210161890A1, “COMPOSITIONS AND METHODS FOR TREATING BRAIN DYSFUNCTION” (BACH PHARMA, INC., priority 2015, published 2021):
Where a name gives a salt, the structure may show the parent alone. Read-outs that look alike come from different tables or passages of the source.

Tests used:
[1] = test system: oxidative stress response and antioxidant genes in the hippocampus of GWI rats
Protocol: The animals were then treated 5 times a week with 5-amino-2,3-dihydro-1,4-phthalazinedione or VEH for 8 weeks. […] Finally, euthanasia and tissue harvesting was performed after 8 weeks of treatment.
(§1) Administration of 5-amino-2,3-dihydro-1,4-phthalazinedione or VEH: Treatment was given for 8 weeks (5 times/week) via oral gavage, commencing in the 5th month after exposure to GMIR chemicals and stress. The doses of 5-amino-2,3-dihydro-1,4-phthalazinedione employed were 40 mg/kg, 80 mg/kg and 160 mg/kg.
Analyses of oxidative stress: The hippocampal tissues obtained from animals belonging to cohort 1 were used for the following measurements. First, we analyzed the oxidative stress response and the expression of antioxidant genes using the Rat Oxidative Stress Response PCR Array from Qiagen. We analyzed the expression of 84 key genes involved in oxidative stress response and antioxidant activity in the hippocampus of animals belonging to different groups using quantitative real time PCR (qRT-PCR) to ascertain the effects of 5-amino-2,3-dihydro-1,4-phthalazinedione treatment on oxidative stress.
(i) Expression of oxidative stress response and antioxidant genes: We analyzed the expression of 84 key genes involved in oxidative stress response and antioxidant activity in the hippocampus of animals belonging to different groups using quantitative real time PCR (qRTPCR).

GWI rats [2] = test system: GWI rats
Protocol: Time-line of various procedures for animals in cohorts 1 and 2: Animals were exposed daily to GWIR-chemicals and stress for 28 days, and were subjected to a survival period of 4 months between exposure and treatment. The animals were then treated 5 times a week with 5-amino-2,3-dihydro-1,4-phthalazinedione or VEH for 8 weeks. […] The animals are then subjected to cognitive and mood function tests starting from the fifth week of treatment. Finally, euthanasia and tissue harvesting was performed after 8 weeks of treatment.
(§2) Exposure of animals to GWIR-chemicals and stress: Animals were exposed daily to the following chemicals for 28 days: pyridostigmine bromide (PB) at 2 mg/kg/day (via oral gavage), DEET at 60 mg/kg/day (via dermal application) and permethrin at 0.2 mg/kg/day (via dermal application). In addition, animals were subjected daily to 15 minutes of restraint stress using rat restrainers during the above 28-day period.
(§3) Survival period between exposure and treatment: Following the exposure to GMIR chemicals and stress, animals were maintained in the vivarium for four months in regular cages (two per cage) with ad libitum access to food and water. Administration of 5-amino-2,3-dihydro-1,4-phthalazinedione or VEH: Treatment was given for 8 weeks (5 times/week) via oral gavage, commencing in the 5th month after exposure to GMIR chemicals and stress. The doses of 5-amino-2,3-dihydro-1,4-phthalazinedione employed were 40 mg/kg, 80 mg/kg and 160 mg/kg.
(§4) Behavioral tests for assessing cognitive and mood function: We examined animals in all groups through stress-free behavioral tests. We used a Pattern Separation Test (PST) to assess cognitive function and a Sucrose Preference Test (SPT) to assess mood function.
This test comprised four days of monitoring. On day 1, rats were housed individually and given free access to two identical bottles containing 1% sucrose solution. Rats were trained to adapt to sucrose solution for 24 hours. On day 2, one bottle was replaced with a new bottle containing regular water for 24 hours. On day 3, rats were deprived of water and food for 23 hours, and then on day 4, rats were given free access to two bottles: one containing 100 ml of sucrose solution and another containing 100 ml of regular vyater. An hour later, the consumed volume in both bottles was recorded.

[3] = test system: inflammatory cytokines in hippocampal tissues of GWI rats; settings: hippocampal tissue;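 also: relative cytokine levels by 16-cytokine plate array in hippocampus of rats given 28 days of GWI-related chemicals plus restraint stress, treated after a 4-month interval, tissue harvested after 8 weeks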
Protocol: (§5) Time-line of various procedures for animals in cohorts 1 and 2: Animals were exposed daily to GWIR-chemicals and stress for 28 days, and were subjected to a survival period of 4 months between exposure and treatment. The animals were then treated 5 times a week with 5-amino-2,3-dihydro-1,4-phthalazinedione or VEH for 8 weeks. […] Finally, euthanasia and tissue harvesting was performed after 8 weeks of treatment.
as §2, §3
Analyses of inflammation: The hippocampal tissues obtained from animals belonging to cohort 1 were also used to measure the relative levels of inflammatory cytokines in different groups of animals. We employed the Rat Cytokine Plate Array from Signosis, which facilitated analyses of 16 rat cytokines in a high-throughput manner. The cytokines included: tumor necrosis factor-alpha (TNF-α), interleukin=1 alpha (IL-1α), interleukin-1 beta (IL-1β), vascular endothelial growth factor (VEGF), fibroblast growth factor beta (FGFβ), interferon gamma (IFNγ), interleukin=5 (IL-5), interleukin=6 (IL-6), interleukin=15 (IL-15), leptin, monocyte chemoattractant protein=1 (MCP-1), IFN-gamma-inducible protein 10 (IP-10 or CXCL10), stem cell factor (SCF), Regulated on Activation, Normal T Cell Expressed and Secreted (Rantes), Macrophage inflammatory protein 1 alpha (MIP-1α) and transforming growth factor-beta (TGFβ).
Analyses of inflammation: The hippocampal tissues obtained from animals were used for measurement of the relative levels of inflammatory cytokines in different groups of animals. We employed “The Rat Cytokine Plate Array” from Signosis, which facilitated analyses of 16 rat cytokines in a high-throughput manner. The cytokines included: TNF-α, IL-1α, IL-1β, VEGF, FGFβ, , IFNγ, IL-5, IL-6, IL-15, leptin, MCP-1, IP-10 (or CXCL10), SCF, Rantes, MIP-1α and TGFβ.

GWI rats [4] = settings: for pattern separation ability (exploration of novel vs familiar object on P2): GWI rats
Protocol: The animals were then treated 5 times a week with 5-amino-2,3-dihydro-1,4-phthalazinedione or VEH for 8 weeks. […] The animals are then subjected to cognitive and mood function tests starting from the fifth week of treatment.
as §1, §4
In this test, each rat successively explored two different sets of identical objects (object types 1 and 2) placed on distinct types of floor patterns (Patterns 1 and 2 [P1 and P2]) for 5 minutes each in the two acquisition trials (separated by 30 minutes). Thirty minutes later, in the testing phase (Trial-3), each rat explored an object from trial 2 (which is now a familiar object) and an object from Trial-1 (which is now a novel object) placed on the floor pattern employed in trial 2 (P2).
FIGS. 1B-1F compare percentages of object exploration time spent with the familiar object on pattern 2 (Fa on P2) and the novel object on pattern 2 (NO of P2) in different animal groups (n=11-14/group).

GWI rats [5] = settings: hippocampal tissue extracts
Protocol: as §5, §2
Survival period between exposure and treatment: Following the exposure to GMIR chemicals and stress, animals were maintained in the vivarium for four months in regular cages (two per cage) with ad libitum access to food and water. […]
Analyses of oxidative stress: The hippocampal tissues obtained from animals belonging to cohort 1 were used for the following measurements. […] Second, we measured lipid peroxidation through quantification of malondialdehyde. […]

[6] = GWI + MSL 40 mg/Kg, oral gavage 5 times/week for 8 weeks
[7] = column headed GWI + MSL 160 mg/Kg, oral gavage 5 times/week for 8 weeks
[8] = last treatment column, head prints no dose, oral gavage 5 times/week for 8 weeks

Nc1cccc2c(=O)[nH][nH]c(=O)c12 [MSL, 5-amino-2,3-dihydro-1,4-phthalazinedione, monosodium salt]
expression of 20 oxidative stress genes increased in GWI rats ([1]; 80 mg/kg): normalized to control levels
expression of 20 oxidative stress genes increased in GWI rats ([1]; 160 mg/kg): normalized to control levels
expression of 4 oxidative stress response genes (Prdx6, Sod2, Sqstm1, Srxn1) ([1]; vs GWI rats receiving VEH): completely normalized
preference for sucrose-containing water over regular water (GWI rats [2]; 40 mg/kg oral gavage): remained impaired
preference for sucrose-containing water over regular water (GWI rats [2]; 80 mg/kg oral gavage): exhibited a clear preference for drinking sucrose-containing water over regular water
preference for sucrose-containing water over regular water (GWI rats [2]; 160 mg/kg oral gavage): exhibited a clear preference for drinking sucrose-containing water over regular water
total volume (normal water+sucrose-containing water) consumed (GWI rats [2]; all dose groups vs naive and VEH, one-way ANOVA): did not show differences between groups
FGF-beta Mean ± S.E.M. [3, 6]: 0.17 ± 0.05
IFN-gamma Mean ± S.E.M. [3, 6]: 0.19 ± 0.05
IL-1alpha Mean ± S.E.M. [3, 6]: 0.17 ± 0.05
IL-1 beta Mean ± S.E.M. [3, 6]: 0.38 ± 0.05
IL-5 Mean ± S.E.M. [3, 6]: 0.19 ± 0.05
IL-6 Mean ± S.E.M. [3, 6]: 0.23 ± 0.05
IL-10 Mean ± S.E.M. [3, 6]: 0.085 ± 0.02
IL-15 Mean ± S.E.M. [3, 6]: 0.13 ± 0.05
LEPTIN Mean ± S.E.M. [3, 6]: 0.40 ± 0.05
MCP-1 Mean ± S.E.M. [3, 6]: 0.09 ± 0.05
MIP-1 alpha Mean ± S.E.M. [3, 6]: 0.06 ± 0.05
Rantes (CCL5) Mean ± S.E.M. [3, 6]: 0.15 ± 0.05
SCF Mean ± S.E.M. [3, 6]: 0.32 ± 0.05
TNF-alpha Mean ± S.E.M. [3, 6]: 0.15 ± 0.02
VEGF Mean ± S.E.M. [3, 6]: 0.19 ± 0.05
FGF-beta [3, 7]: 0.21 ± 0.03
IFN-gamma [3, 7]: 0.23 ± 0.03
IL-1alpha [3, 7]: 0.21 ± 0.03
IL-1 beta [3, 7]: 0.42 ± 0.06
IL-5 [3, 7]: 0.22 ± 0.03
IL-6 [3, 7]: 0.28 ± 0.02
IL-10 [3, 7]: 0.103 ± 0.02
IL-15 [3, 7]: 0.14 ± 0.02
LEPTIN [3, 7]: 0.50 ± 0.09
MCP-1 [3, 7]: 0.13 ± 0.02
MIP-1 alpha [3, 7]: 0.07 ± 0.01
Rantes (CCL5) [3, 7]: 0.17 ± 0.03
SCF [3, 7]: 0.36 ± 0.06
TNF-alpha [3, 7]: 0.19 ± 0.03
VEGF [3, 7]: 0.22 ± 0.03
concentration of MIP-1α ([3]; GWI rats, decreases not significant statistically): reduced the concentration of MIP-1α
concentration of 16 cytokines between groups ([3]; naive, GWI + VEH and GWI rats receiving different doses): no significant differences
FGF-beta Mean ± S.E.M. [3, 8]: 0.18 ± 0.03
IFN-gamma Mean ± S.E.M. [3, 8]: 0.28 ± 0.03
IL-1alpha Mean ± S.E.M. [3, 8]: 0.17 ± 0.01
IL-1 beta Mean ± S.E.M. [3, 8]: 0.39 ± 0.06
IL-5 Mean ± S.E.M. [3, 8]: 0.19 ± 0.04
IL-6 Mean ± S.E.M. [3, 8]: 0.24 ± 0.03
IL-10 Mean ± S.E.M. [3, 8]: 0.086 ± 0.01
IL-15 Mean ± S.E.M. [3, 8]: 0.11 ± 0.02
LEPTIN Mean ± S.E.M. [3, 8]: 0.43 ± 0.11
MCP-1 Mean ± S.E.M. [3, 8]: 0.10 ± 0.02
MIP-1 alpha Mean ± S.E.M. [3, 8]: 0.08 ± 0.02
Rantes (CCL5) Mean ± S.E.M. [3, 8]: 0.18 ± 0.02
SCF Mean ± S.E.M. [3, 8]: 0.32 ± 0.07
TNF-alpha Mean ± S.E.M. [3, 8]: 0.18 ± 0.02
VEGF Mean ± S.E.M. [3, 8]: 0.21 ± 0.03
pattern separation ability (exploration of novel vs familiar object on P2) (GWI rats [4]; 40 mg/kg oral gavage): remained impaired
pattern separation ability (exploration of novel vs familiar object on P2) (GWI rats [4]; 80 mg/kg oral gavage): remained impaired
pattern separation ability (exploration of novel vs familiar object on P2) (GWI rats [4]; 160 mg/kg oral gavage): displayed an ability for pattern separation
total object exploration time between groups in Trial-3 (GWI rats [4]; GWI rats, 40, 80 and 160 mg/Kg groups vs naive and VEH, one-way ANOVA): did not show ditierences between groups
MDA concentration (GWI rats [5]; 40 mg/kg, p<0.05): higher concentration of MDA than naive control rats
MDA concentration (GWI rats [5]; 160 mg/kg): reduced MDA concentration than GWI rats receiving VEH
